Results on seven molecules are retold here after US8884030B2, “Inhibitors of Flaviviridae viruses” (priority 2010, dated 2014).

Usually inhibition stands for the share of the control response that was lost under treatment.

One experiment has as its system human hepatoma Huh-7 cell line harboring a HCV replicon. Kind of experiment: HCV replicon assay (inhibition of viral replication, luciferase). It counts as cell-based. As to conditions: Hepatitis C virus, 72 h; 2 μM; Huh-7 HCV replicon cells, 3 days incubation; inhibition of viral replication; read-out: % inhibition at 2 μM. An outline of the steps: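 Huh-7 replicon cells (1600/well) exposed 3 days at 37 °C to 10-point 3-fold dilutions, 0.44% DMSO. Replication measured by Dual-Glo luciferase, background from ITMN-191 wells; cytotoxicity by calcein AM. EC50/CC50 from Hill fit; % inhibition at fixed concentration derivable from fit.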
(In general: A replicon is a self-replicating genome or part of one, used to study replication in cells.)
In the case of `C[C@@H](CCNC(=O)O[C@@H]1CCOC1)N(c1cc(C#CC(C)(C)C)sc1C(=O)O)C(=O)[C@H]1CC[C@H](C)CC1` [Compound 65, 5-(3,3-dimethyl-but-1-ynyl)-3-[[trans-4-methyl-cyclohexanecarbonyl)-[1-(S)-methyl-3-(tetrahydrofuran-3-yloxycarbonylamino)-propyl]-amino]-thiophene-2-carboxylic acid], the inhibition at 2 µM turned out to be 99.9%.

In the case of `CC(C)(C)C#Cc1cc(N(C(=O)[C@H]2CC[C@H](C)CC2)[C@H]2CCN(C(=O)O[C@@H]3CCCNC3)C2)c(C(=O)O)s1` [Compound 38, 3-(S)-[[2-carboxy-5-(3,3-dimethyl-but-1-ynyl)-thiophen-3-yl]-(4-trans-methyl-cyclohexanecarbonyl)-amino]-pyrrolidine-1-carboxylic acid piperidin-3-(R)-yl ester], the inhibition at 2 µM worked out at 99.6%.

Turning to `CC(C)(C)C#Cc1cc(N(C(=O)[C@H]2CC[C@H](C)CC2)[C@H]2CCN(C(=O)OC3CCN(C(=O)OC(C)(C)C)CC3)C2)c(C(=O)O)s1` [Compound 39, 4-{3-(S)-[[2-carboxy-5-(3,3-dimethyl-but-1-ynyl)-thiophen-3-yl]-(4-trans-methyl-cyclohexanecarbonyl)-amino]-pyrrolidine-1-carbonyloxy}-piperidine-1-carboxylic acid tert-butyl ester], the inhibition at 2 µM came out at 98.8%.

For the molecule `CC1CCC(C(=O)N(c2cc(C#CC(C)(C)C)sc2C(=O)O)N(C)CCOc2cccnc2)CC1` (stereo not shown) [Compound 130, 5-(3,3-dimethyl-but-1-ynyl)-3-{N′-methyl-N-(4-methyl-cyclohexanecarbonyl)-N′-[2-(pyridin-3-yloxy)-ethyl]-hydrazino}-thiophene-2-carboxylic acid], the inhibition at 2 µM amounted to 98.7%.

Turning to `CC1CCC(C(=O)N(c2cc(C#CC(C)(C)C)sc2C(=O)O)N(C)C)CC1` (stereo not shown) [Compound 136, 5-(3,3-dimethyl-but-1-ynyl)-3-[N′-dimethyl-N-(4-methyl-cyclohexanecarbonyl)-hydrazino]-thiophene-2-carboxylic acid], the inhibition at 2 µM is 98.9%.

For the molecule `CC(C)(C)C#Cc1cc(N(C(=O)[C@H]2CC[C@H](C)CC2)C2CCC(NC(=O)OC3CCN(C(=O)OC(C)(C)C)CC3)CC2)c(C(=O)O)s1` (stereo partly drawn) [Compound 44, 4-{4-[[2-carboxy-5-(3,3-dimethyl-but-1-ynyl)-thiophen-3-yl]-(4-trans-methyl-cyclohexanecarbonyl)-amino]-cyclohexylcarbamoyloxy}-piperidine-1-carboxylic acid tert-butyl ester], the inhibition at 2 µM is 100%.

Still in this experiment, the particulars now being: Hepatitis C virus, Huh-7, 72 h, read-out: % inhibition at 2 μM.
With `CC1CCC(C(=O)N(c2cc(C#CC(C)(C)C)sc2C(=O)O)C2CCC(NN(C)C(=O)Oc3ccccn3)CC2)CC1` (stereo not shown) [Compound 218, 5-(3,3-dimethyl-but-1-ynyl)-3-((4-methyl-cyclohexanecarbonyl)-{4-[N′-methyl-N′-(pyridin-2-yloxycarbonyl)-hydrazino]-cyclohexyl}-amino)-thiophene-2-carboxylic acid], the inhibition at 2 µM is 100%.
